Earlier results as cited in patent publication US20070243563A1, “Aflatoxin-albumin adduct measurement and the uses thereof” (priority 2000, published 2007).

How the values were obtained:
rats = conditions: rat, in vivo

For Aflatoxin B1 [AFB1], the TD50 (rats) is listed as 9.3×10^−4 mg/kg per day, the “carcinogenic potency relative to benzo(a)pyrene” value (rats) is listed as 1000 times and the IARC carcinogen classification (humans) is listed as “Group 1 carcinogens”.
